{"source": "patent US7825270B2", "about": "“Inositolphospholipids and analogues: phosphatidylinositol products and processes” (Nutrimed Biotech, priority 2005, dated 2010)", "key": {"[1]": {"system": "HDL-C levels", "conditions": "administration of PI, humans; cited from earlier work"}, "[2]": {"assay": "solubility in organic solvents", "assay_type": "physicochemical", "conditions": "alcohol, acetone, ethyl acetate or methanol"}, "[3]": {"system": "epithelial cell proliferation", "conditions": "cited from earlier work"}}}
{"substance": "phosphatidylinositol [PI]", "values": [{"measurement": "effect on HDL-C levels", "setting": "[1]", "result": "raises HDL-C levels"}]}
{"substance": "Soy PI-2,3,4,5,6-penta-O-tetrahydropyranyl ether", "values": [{"measurement": "solubility in solvents", "setting": "[2]", "result": "dissolved easily"}]}
{"substance": "D-myo-inositol 4-(hexadecyloxy)-3(S)methoxy-butane-phosphonate", "values": [{"measurement": "inhibition of epithelial cell proliferation", "setting": "[3]", "result": "inhibit epithelial cell proliferation"}]}
